The nature of one data set: in vivo. The conditions noted are these: for Bee without gut %: percentage of total quantity recovered in the dissected bee found in the bee without gut; for Bee without gut % / Gut %: N = 6; for Gut %: percentage of total quantity recovered in the dissected bee found in the gut. An excerpt:
(§1) Honey bees (A. mellifera L) were collected from brood frames in the apiary of Aarhus University, Flakkebjerg. The collected bees were fed on 50% sucrose for 3 days. On day 3, the bees were divided into eight experimental groups placed in feeding cages (N = 49–73). The exact numbers of bees in the individual cages were counted at the end of the experiment. A portion of bees were also collected for the analysis of the presence of the compounds prior to the experiment. Thus, these bees served as a negative control group. The feeding boxes were placed in incubators in complete darkness under the following conditions: 34 °C; 38–40% relative humidity. Information about plants known to produce the phytochemicals fed to the honey bees is included in the Supporting Information (Table S1). The prepared solutions were placed in 1.5 mL Eppendorf tubes, and the bottom of the tubes was pierced with a sterilized needle to allow the bees to feed on the solution. The feeding solutions were replaced every 24 h to prevent compound degradation and measure food intake. Dead bees were counted and removed daily. On day 5, the feeding containers were removed, and 2 h later, the bees were anesthetized with CO2 and killed by freezing.
Six bees from each of the experimental groups were defrosted and rinsed with water, and their heads were removed with a scalpel to cut the esophagus. The complete alimentary canal (hereafter “gut”) was removed by grabbing the stinger with tweezers and gently pulling until the alimentary canal was released.[31] The two samples consisting of the gut and the rest of the bee without the gut (head, thorax, and abdomen; hereafter, “bee without gut”) were lyophilized separately in 1.5 mL Eppendorf tubes. Upon drying, the samples comprising the bees without guts were transferred to the extraction Falcon tubes, pulverized, and extracted as described above for the whole bees. Samples comprising the guts were instead pulverized directly in the 1.5 mL Eppendorf tubes by adding two metal beads and placing these tubes in the Geno/Grinder using a modified rack. Because of the small sample size, the pulverized guts were then gradually transferred to the extraction Falcon tubes using the extraction solvents to flush the material from the Eppendorf tubes. The remaining parts of the extraction followed the protocols described above for whole bees.
(§2) Prior to the analysis, the compound-dependent mass spectrometer parameters of the eight compounds were optimized by infusion. For each compound, two MRM transitions were monitored (Table 2); one transition was used for quantification, whereas the other was used as a qualifier MRM to ensure correct identification.
(§3) The compounds were separated on a Synergy Fusion column (150 mm × 2 mm, 4 μm; Phenomenex, Værløse, Denmark) with a flow rate of 0.4 mL/min, and the gradient was as follows: 0–2 min: 100% A; 2–18 min: 100–30% A; 18–19 min: 30–0% A; 19–22 min: 0% A; 22–23 min: 0–100% A and 23–30 min: 100% A. Source parameters were as follows: curtain gas (CUR), 45 psi; collision gas (CAD), medium; temperature (TEM), 400 °C; ion source gas 1 (GS 1), 90 psi; ion source gas 2 (GS 2), 30 psi; and ionspray voltage (IS), 4200 V. Amygdalin was analyzed using the same source parameters and chromatographic method as described above, but in negative mode. […] The column was a Hypersil BDS C18 (250 mm × 2.1 mm, 5 μm; Thermo Fisher, Hvidovre, Denmark), and the solvent system consisted of 5 mM ammonium formate (A) and methanol (B). […] An injection volume of 30 μL was used for the triptolide analyses, whereas 20 and 30 μL were injected for the remaining compounds for whole and dissected bees, respectively.
In the individual dissected bees (N = 6), the sum of the quantities recovered in the guts and the bees without guts designates the total quantity of compound recovered in that individual.

The conditions of data set [1]: for Metabolization percentage, day 4 to 5: quantity in whole bees vs intake during the last 24 h of feeding.
Excerpt: as §1
Twelve individual bees from each of the experimental groups were rinsed with water and placed individually in 1.5 mL Eppendorf tubes. The bees were then lyophilized and transferred individually to Falcon tubes for extraction. […] The extraction solvents were added, and the bees were extracted by shaking using an Intelli-Mixer for 1 h (60 rpm). […] After extraction, the samples were centrifuged (12 min, 4 °C, 4500 rpm). […] Extracts of bees fed on triptolide were further purified by solid phase extraction (SPE) using a protocol modified from Wang et al.[30] One milliliter of the methanol extracts was diluted to 10 mL with Milli-Q water, 100 μL of formic acid was added, and the diluted extracts were loaded onto 30 mg Oasis HLB prime SPE (Waters, Hedehusene, Denmark) cartridges without prior column conditioning. The SPE cartridges were first washed with 1 mL of 2% ammonium hydroxide in 1:9 methanol/water and then with 1 mL of 2% acetic acid in 3:7 methanol/water, and triptolide was eluted from the cartridges with 1 mL of 4:1 methanol/water. Prior to HPLC-MS/MS analyses, 225 μL of the SPE eluates was diluted with 275 μL of 5 mM ammonium formate and filtered using a syringe filter (Kinesis KX PTFE syringe filter 13 mm, 0.22 μm, Mikrolab, Aarhus, Denmark).
as §2, §3

The test system of another data set is honey bees. Conditions: cited from earlier work.
Data set [2] concerns honey bee memory retrieval. The conditions noted are these: cited from earlier work.
The test system of data set [3] is honey bee immune functions (antimicrobial peptide hymenoptaecin). Further details: method as in PMID 28981688. The conditions noted are these: cited from earlier work.
Another data set deals with Crithidia bombi. The conditions noted are these: bumble bees; cited from earlier work.
Where [4] appears, read: dissected bees N = 6, day 5, ± SD.
Where [5] appears, read: in vivo, po, oral bioavailability (%), percentage of the total ingested quantity over the 5-day feeding period recovered in the bees without guts, ± SD, dissected bees N = 6.
Where [6] appears, read: comparison between the eight phytochemicals, P < 0.05.
[7] abbreviates: whole bees N = 12, sampled day 5, 2 h after feeding was terminated, ± SD.
The mark [8] stands for this setting: honey bee (Apis mellifera), in vivo, po, oral bioavailability (%), percentage of the total ingested quantity over the 5-day feeding period recovered in the bees without guts, ± SD, dissected bees N = 6.
Setting [9] is: percentage of the total ingested quantity over the 5-day feeding period recovered in the bees without guts, ± SD, dissected bees N = 6.
Where [10] appears, read: honey bee (Apis mellifera), in vivo.

Structures are written as SMILES. “Also recorded” adds a separate entry of the source. Like-named read-outs stand apart in the source and are kept apart here. Bounds are passed on as bounds.

The values below come from article PMC7884015 (Journal of Agricultural and Food Chemistry, 2021).

Broadly, the bioavailability is the share of a dose that reaches the circulation, judged against a reference dose that is usually intravenous. For `N#C[C@H](O[C@@H]1O[C@H](CO[C@@H]2O[C@H](CO)[C@@H](O)[C@H](O)[C@H]2O)[C@@H](O)[C@H](O)[C@H]1O)c1ccccc1` [amygdalin, Amygdalin], in “in vivo” (setting [4]), the “Bee without gut (ng/bee)” value amounted to 833 ± 511 ng/bee and the “Gut (ng/bee)” value is recorded as 78 ± 34 ng/bee. Further, the bioavailability in “in vivo” (setting [5]) is 31 ± 19%. Moreover, in the data set “in vivo” (± SD), the “Bee without gut %” value came out at 90 ± 5% and the Gut % was 11%. Moreover, the Relative metabolization rate result in data set [1] (setting [6]) is recorded as “metabolized significantly faster”. Moreover, in data set [1] (setting [7]), the “Mean concentration (ng/bee) in whole bees” value (“Mean concentration (ng/bee)” for short) is 238 ± 218 ng/bee. In addition, the LD50 with honey bees was 0.003%.
Consider `CN1[C@@H]2CC[C@H]1C[C@@H](OC(=O)C(CO)c1ccccc1)C2` (stereo partly shown) [atropine, Atropine, reference compound], for which, in “in vivo” (setting [4]), the “Bee without gut (ng/bee)” value is listed as 89 ± 65 ng/bee and the “Gut (ng/bee)” value amounted to 90 ± 17 ng/bee. For the same compound, in “in vivo” (± SD), the “Bee without gut %” value was determined as 46 ± 15% and the Gut % amounted to 54 ± 15%. Further, the “Mean concentration (ng/bee)” value in data set [1] (setting [7]) came out at 236 ± 76 ng/bee. In addition, the “Consumed concentration that can impair honey bee memory retrieval” value in data set [2] is reported as “above 10^–2 M”.
For `OCC1=C[C@@H](O)[C@@H]2C=CO[C@@H](O[C@@H]3O[C@H](CO)[C@@H](O)[C@H](O)[C@H]3O)[C@H]12` [aucubin, Aucubin], the bioavailability stood at 13% in “in vivo” (setting [8]) and 13.1 ± 3.8% in “in vivo” (setting [5]). In data set [3] (aucubin feeding), the “Effect on expression of the antimicrobial peptide hymenoptaecin” value is “significantly increased the expression”. In data set [3], the “Effect on honey bee immune functions” value is on record as “significantly stimulated honey bee immune functions”. Moreover, the Relative metabolization rate result in data set [1] (setting [6]) is reported as “metabolized significantly slower”. Further, the “Metabolization percentage, day 4 to 5” value in data set [1] is “significantly lower; also recorded: negative metabolization percentages”. For the same compound, the “Mean concentration (ng/bee)” value in data set [1] (setting [7]) is 16400 ± 5640 ng/bee. In addition, the “Effect on levels of the bumble bee gut protozoan Crithidia bombi” value with Crithidia bombi was “significantly decreased the levels”.
For the compound `C=C[C@]12CN(C)[C@@H]3[C@H]4CO[C@H](C[C@H]41)[C@]1(C(=O)Nc4ccccc41)[C@@H]32` [gelsemine, Gelsemine], in “in vivo” (setting [4]), the “Bee without gut (ng/bee)” value came out at 461 ± 415 ng/bee and the “Gut (ng/bee)” value amounted to 106 ± 67 ng/bee. In “in vivo” (setting [5]), the bioavailability at 5 day is 6%. For the same compound, in the data set “in vivo” (setting [9]), the “oral bioavailability (%)” value worked out at 6.1 ± 5.5%. For the same compound, in “in vivo” (± SD), the “Bee without gut %” value was 71 ± 32% and the Gut % was determined as 30%. Moreover, in the data set “in vivo” (± SD, listed as Gelsemine), the Gut % was determined as 30 ± 32%. In addition, the Relative metabolization rate entry in data set [1] (setting [6]) was “metabolized significantly faster”. Further, in data set [1] (setting [7]), the “Mean concentration (ng/bee)” value was 508 ± 174 ng/bee. Besides, in the data set on Crithidia bombi, the “Effect on levels of the bumble bee gut protozoan Crithidia bombi” value was “significantly decreased the levels”.
Take `CCN1C[C@]2(COC(=O)c3ccccc3N3C(=O)C[C@H](C)C3=O)CC[C@H](OC)[C@@]34[C@@H]5C[C@H]6[C@H](OC)[C@@H]5[C@](O)(C[C@@H]6OC)[C@@](O)([C@@H](OC)[C@H]23)[C@@H]14` [methyllycaconitine, Methyllycaconitine]: in the data set “in vivo” (setting [4]), the “Bee without gut (ng/bee)” value is given as 0.2 ± 0.1 ng/bee and the “Gut (ng/bee)” value is given as 0.05 ± 0.03 ng/bee. In addition, the bioavailability in the data set “in vivo” (setting [5]) is less than 10%. For the same compound, in “in vivo” (± SD), the “Bee without gut %” value came out at 81 ± 13% and the Gut % is on record as 19 ± 13%. Further, the Relative metabolization rate result in data set [1] (setting [6]) is given as “metabolized significantly faster”. Further, in data set [1] (setting [7]), the “Mean concentration (ng/bee)” value is given as 0.3 ± 0.2 ng/bee.
Consider `C/C=C1/C[C@@H](C)[C@@](C)(O)C(=O)OCC2=CCN3CC[C@@H](OC1=O)[C@@H]23` [senecionine, Senecionine], for which, in the data set “in vivo” (setting [10]), the “Bee without gut (ng/bee)” value was 3.4 ± 2.2 ng/bee and the “Gut (ng/bee)” value is given as 2.3 ± 1.3 ng/bee. Further, the bioavailability in “in vivo” (honey bee (Apis mellifera), in vivo, po, oral bioavailability (%)) is less than 10%. The bioavailability in the data set “in vivo” (in vivo, po, oral bioavailability (%)) was 4 ± 2.6%. Moreover, the “Mean concentration (ng/bee)” value in data set [1] (setting [10]) is recorded as 4.9 ± 1.6 ng/bee. In addition, in data set [1] (in vivo), the Relative metabolization rate result was “metabolized significantly faster”.
Turning to `C/C=C1/C[C@@H](C)[C@@](C)(O)C(=O)OC/C2=C/CN(C)CC[C@@H](OC1=O)C2=O` [senkirkine, Senkirkine], in “in vivo” (setting [4]), the “Bee without gut (ng/bee)” value stood at 7.0 ± 4.9 ng/bee and the “Gut (ng/bee)” value turned out to be 2.3 ± 3.0 ng/bee. The bioavailability in “in vivo” (setting [8]) was less than 10%. For the same compound, the bioavailability in “in vivo” (setting [5]) was 9%. In “in vivo” (setting [9]), the “oral bioavailability (%)” value is recorded as 8.9 ± 6.3%. In addition, in “in vivo” (± SD), the “Bee without gut %” value is listed as 73 ± 28% and the Gut % worked out at 27%. Moreover, in data set [1] (setting [6]), the Relative metabolization rate entry was “metabolized significantly faster”. Also, the “Mean concentration (ng/bee)” value in data set [1] (setting [7]) is on record as 7.4 ± 3.5 ng/bee.
As for `CC(C)[C@]12O[C@H]1[C@@H]1O[C@]13[C@]1(O[C@H]1C[C@H]1C4=C(CC[C@@]13C)C(=O)OC4)[C@@H]2O` [triptolide, Triptolide], in the data set “in vivo” (setting [4]), the “Bee without gut (ng/bee)” value is 3.1 ± 1.5 ng/bee and the “Gut (ng/bee)” value is reported as 0.6 ± 0.2 ng/bee. In the data set “in vivo” (setting [5]), the bioavailability was 21%. In “in vivo” (setting [9]), the “oral bioavailability (%)” value was 20.6 ± 9.9%. Besides, in the data set “in vivo” (± SD), the “Bee without gut %” value is on record as 79 ± 11% and the Gut % turned out to be 21 ± 11%. For the same compound, the Relative metabolization rate result in data set [1] (setting [6]) is on record as “metabolized significantly slower”. Moreover, the “Metabolization percentage, day 4 to 5” value in data set [1] was “significantly lower; also recorded: negative metabolization percentages”. Moreover, the “Metabolization percentage, day 1 to 5” value in data set [1] (quantity in whole bees vs total intake over the 5-day feeding period, day 5, 2 h after feeding was terminated) is given as “significantly lower”. Moreover, the “Mean concentration (ng/bee)” value in data set [1] (setting [7]) worked out at 4.4 ± 2.8 ng/bee.
